Measured values from patent publication US9890152B2 (Genentech, Inc., priority 2012, dated 2018).

molecular target: T1, EGFR del746-750 T790M (Homo sapiens, UniProt P00533, DEL746-750/T790M); assay: EGFR del746-750 T790M biochemical assay (Caliper mobility shift); details: 5 μM ATP, 30 min, room temperature; apparent Ki (Morrison) converted by Cheng-Prusoff, Km of ATP 2.1 μM; read-out: EGFR(T790M/d746-750) Ki
T1 construct: purchased Carna Biosciences 08-528
T1 sequence (P00533 with tags, fused parts or gaps DEL746-750/T790M limits assumed): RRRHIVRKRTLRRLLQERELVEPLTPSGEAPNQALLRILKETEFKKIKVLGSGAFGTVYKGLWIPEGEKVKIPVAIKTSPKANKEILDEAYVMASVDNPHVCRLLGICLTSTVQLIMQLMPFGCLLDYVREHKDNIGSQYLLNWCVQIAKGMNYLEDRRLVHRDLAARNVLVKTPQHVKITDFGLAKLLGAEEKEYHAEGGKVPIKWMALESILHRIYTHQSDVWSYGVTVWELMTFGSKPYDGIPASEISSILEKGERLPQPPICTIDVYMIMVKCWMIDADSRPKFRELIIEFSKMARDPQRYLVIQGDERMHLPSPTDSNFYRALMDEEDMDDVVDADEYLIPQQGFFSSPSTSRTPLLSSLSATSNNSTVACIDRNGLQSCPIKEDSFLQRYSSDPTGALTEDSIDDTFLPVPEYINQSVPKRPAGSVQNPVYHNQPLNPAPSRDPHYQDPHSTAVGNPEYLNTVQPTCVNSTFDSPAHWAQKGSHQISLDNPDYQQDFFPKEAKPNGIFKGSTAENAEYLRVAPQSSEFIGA

| Ki [nM] | Compound |
| --- | --- |
| 138 | CC(C)n1cnc2cnc(Nc3ccnc(N4CCCC(C(N)=O)C4)n3)cc21 (stereo not shown) [Example 66, 1-(4-(1-isopropyl-1H-imidazo[4,5-c]pyridin-6-ylamino)pyrimidin-2-yl)piperidine-3-carboxamide] |
| 15 | CC(n1cc(C(=O)NC2CCOCC2)c2cnc(Nc3ccnc(N4CC[C@@H](O)[C@@H](F)C4)n3)cc21)C(F)(F)F (single isomer, unassigned) [Example 639] |
| 6.96 | CO[C@@H]1CCN(c2nccc(Nc3cc4c(cn3)c(C(=O)NC3CCOCC3)cn4C(C)C)n2)C[C@@H]1F [Example 380, 6-((2-((3S,4R)-3-fluoro-4-methoxypiperidin-1-yl)pyrimidin-4-yl)amino)-1-isopropyl-N-(tetrahydro-2H-pyran-4-yl)-1H-pyrrolo [3,2-c]pyridine-3-carboxamide] |
| 60.8 | CO[C@H]1CCN(c2nccc(Nc3cc4c(cn3)nc(CO)n4C(C)C)n2)C[C@H]1F [Example 655] |
| 3.38 | CC(C)n1c(CO)nc2cnc(Nc3ccnc(-c4cnc(N)s4)n3)cc21 [Example 615, {6-[2-(2-Aminothiazol-5-yl)pyrimidin-4-ylamino]-1-isopropyl-1H-imidazo[4,5-c]pyridin-2-yl}methanol] |
| 230 | C[C@H](O)c1nc2cnc(Nc3ccnc(N4CC[C@@H](O)[C@@H](F)C4)n3)cc2n1[C@H](C)C(F)(F)F [Example 689] |
| 7.67 | CO[C@H]1CCN(c2nccc(Nc3cc4c(cn3)nc([C@H](C)O)n4[C@@H](C)C(F)(F)F)n2)C[C@H]1F [Example 684] |
| 46.5 | Cc1nc2cnc(Nc3ccnc(-c4cnn(C)c4)n3)cc2n1C(C)C [Example 365, 1-Isopropyl-2-methyl-N-(2-(1-methyl-1H-pyrazol-4-yl)pyrimidin-4-yl)-1H-imidazo[4,5-c]pyridin-6-amine] |
| 5.65 | C[C@H](n1c(CO)nc2cnc(Nc3ccnc(N4CC[C@H](O)[C@H](F)C4)n3)cc21)C(F)(F)F [Example 667] |
| 21.6 | Cc1nc2cnc(Nc3ccnc(N4CCC(O)C(F)(F)C4)n3)cc2n1C(C)C (racemic) [Example 507, (±)-3,3-Difluoro-1-(4-((1-isopropyl-2-methyl-1H-imidazo[4,5-c]pyridin-6-yl)amino)pyrimidin-2-yl)piperidin-4-ol] |
| 5.63 | CCCC(C)n1c(CO)nc2cnc(Nc3ccnc(-c4cnn(S(=O)(=O)C5CC5)c4)n3)cc21 (stereo not shown) [Example 265, (6-(2-(1-(Cyclopropylsulfonyl)-1H-pyrazol-4-yl)pyrimidin-4-ylamino)-1-(pentan-2-yl)-1H-imidazo[4,5-c]pyridin-2-yl)methanol] |
| 73 | Cc1nc2cnc(Nc3ccnc(N4CC[C@@](C)(O)[C@H](F)C4)n3)cc2n1C(C)C [Example 674] |
| 41.1 | CO[C@H]1CCN(c2nccc(Nc3cc4c(cn3)nc(C)n4C(C)C)n2)C[C@H]1F (racemic) [Example 607, [2-((3RS,4SR)-3-Fluoro-4-methoxypiperidin-1-yl)pyrimidin-4-yl]-(1-isopropyl-2-methyl-1H-imidazo[4,5-c]pyridin-6-yl)amine] |
| 11.1 | CC(C)n1c(C(C)(C)O)nc2cnc(Nc3ccnc(-c4cnn(S(=O)(=O)C5CC5)c4)n3)cc21 [Example 563, 2-{6-[2-(1-Cyclopropanesulfonyl-1H-pyrazol-4-yl)pyrimidin-4-ylamino]-1-isopropyl-1H-imidazo[4,5-c]pyridin-2-yl} propan-2-ol] |
| 107 | C[C@@H](O)c1nc2cnc(Nc3ccnc(N4CC[C@@H](O)[C@@H](F)C4)n3)cc2n1[C@H](C)C(F)(F)F [Example 687] |
| 30.4 | COC1CCN(c2nccc(Nc3cc4c(cn3)nc(C)n4-c3ccccc3)n2)CC1 [Example 494, N-(2-(4-Methoxypiperidin-yl)pyrimidin-4-yl)-2-methyl-1-phenyl-1H-imidazo[4,5-c]pyridin-6-amine] |
| 210 | CC(C)n1c(CO)nc2cnc(Nc3ccnc(N4CC[C@@](O)(C5CC5)[C@H](F)C4)n3)cc21 (racemic) [Example 633, (3RS,4RS)-4-cyclopropyl-3-fluoro-1-(4-((2-(hydroxymethyl)-1-isopropyl-1H-imidazo[4,5-c]pyridin-6-yl)amino)pyrimidin-2-yl)piperidin-4-ol] |
| 14.5 | Cc1nc2cnc(Nc3ccnc(-c4cnn(S(=O)(=O)N(C)C)c4)n3)cc2n1C(C)C [Example 397, 4-(4-((1-isopropyl-2-methyl-1H-imidazo[4,5-c]pyridin-6-yl)amino)pyrimidin-2-yl)-N,N-dimethyl-1H-pyrazole-1-sulfonamide] |
| 709 | O=C1CC(n2c(CO)nc3cnc(Nc4ccnc(-c5cnn(S(=O)(=O)C6CC6)c5)n4)cc32)CN1 (stereo not shown) [Example 694] |
| 3.59 | C[C@H](n1c([C@@H](C)O)nc2cnc(Nc3ccnc(N4CC[C@@H](O)[C@@H](F)C4)n3)cc21)C(F)(F)F [Example 291, (3S,4R)-3-Fluoro-1-{4-[2-((R)-1-hydroxyethyl)-1-((S)-2,2,2-trifluoro-1-methylethyl)-1H-imidazo[4,5-c]pyridin-6-ylamino]pyrimidin-2-yl}-piperidin-4-ol] |
| 3.72 | CCC(C)n1cc(C(=O)NC2CCOCC2)c2cnc(Nc3ccnc(N4C[C@@H](F)[C@@H](O)C(C)(C)C4)n3)cc21 (mixture of isomers) [Example 646, 1-sec-Butyl-6-(2-((±)-cis-5-fluoro-4-hydroxy-3,3-dimethylpiperidin-1-yl)pyrimidin-4-ylamino)-N-(tetrahydro-2H-pyran-4-yl)-1H-pyrrolo[3,2-c]pyridine-3-carboxamide] |
| 219 | Cc1nc2cnc(Nc3ccnc(N4CCC5(CC4)OCCCO5)n3)cc2n1C(C)C [Example 648] |
| 0.62 | CCS(=O)(=O)n1cc(-c2nccc(Nc3cc4c(cn3)c(C(=O)NC3COC3)cn4C(C)C)n2)cn1 [Example 448, 6-(2-(1-(ethylsulfonyl)-1H-pyrazol-4-yl)pyrimidin-4-ylamino)-1-isopropyl-N-(oxetan-3-yl)-1H-pyrrolo[3,2-c]pyridine-3-carboxamide] |
| 10.2 | COC1CCN(c2nccc(Nc3cc4c(cn3)c(C(=O)NC(C)C)cn4C(C)C)n2)CC1 [Example 120, N,1-diisopropyl-6-((2-(4-methoxypiperidin-1-yl)pyrimidin-4-yl)amino)-1H-pyrrolo[3,2-c]pyridine-3-carboxamide] |
| 351 | CC(C)n1c(CO)nc2cnc(Nc3ccnc(N4CC[C@H](O)[C@H](C)C4)n3)cc21 (racemic) [Example 631, (±)-(cis)-1-(4-(2-(Hydroxymethyl)-1-isopropyl-1H-imidazo[4,5-c]pyridin-6-ylamino)pyrimidin-2-yl)-3-methylpiperidin-4-ol] |
| 20.5 | Cc1cn[nH]c1-c1cn(C(C)C)c2cc(Nc3ccnc(N4CCC(O)C(C)(C)C4)n3)ncc12 (stereo not shown) [Example 347, 1-(4-((1-Isopropyl-3-(4-methyl-1H-pyrazol-5-yl)-1H-pyrrolo[3,2-c]pyridin-6-yl)amino)pyrimidin-2-yl)-3,3-dimethylpiperidin-4-ol] |
| 3.13 | COC1CCN(c2nccc(Nc3cc4c(cn3)c(-c3ccn(CC(N)=O)n3)cn4C(C)C)n2)CC1 [Example 411, 2-(3-(1-isopropyl-6-((2-(4-methoxypiperidin-1-yl)pyrimidin-4-yl)amino)-1H-pyrrolo[3,2-c]pyridin-3-yl)-1H-pyrazol-1-yl) acetamide] |
| 140 | CC(C)n1c(CO)nc2cnc(Nc3ccnc(N4CC5CC4C5)n3)cc21 [Example 692] |
